Patent publication US12577227B2, “WDR5 inhibitors and modulators” (Vanderbilt University, priority 2019, dated 2026)

tested on: MV4:11 human cancer cell lines; experiment: Cellular viability / anti-proliferative activity (CellTiter-Glo); type: cell-based; conditions: MV4-11, 120 h, MV-4-11 cells, 5 day protocol, mean of minimum two replicates, read-out: GI50 on cellular proliferation of MV4:11 human cancer cell lines
Protocol: Cellular Viability of Human Tumor Cell Lines
Anti-Proliferative Activity Using MLL-Harboring Cell Lines.
MV-4-11 and K562 cells are grown in IMDM media supplemented with 10% FBS and […], Molm-13 cells are cultured in RPMI-1640 media supplemented with 10% FBS and 1% o penicillin/streptomycin. Viability assays are performed by dispensing 200 cells at 7200 cells/mL into each well of an opaque 384-well plate and adding compounds at the indicated concentrations in a final volume of 32 μL and a final concentration of DMSO of 0.3% for all samples. A certain range of compound concentrations is made through a series of 2-fold dilutions starting 30 μM at the highest, total 22 dilutions. After a set incubation period, 5 day protocol, the viability of cells in each well is assessed using the CellTiter-Glo assay (Promega), read on a 96 Microplane Luminometer (Cytation 3, BioTek). Serial dilutions of each cell type are performed in all assays to generate standard curves and the final densities of cells are determined within the dynamic range of the instrument. GI50 values are calculated based on XLfit software (IDBS, Guildford, UK) with Sigmoidal Dose-Response Model. Each compound is tested in minimum of two replicates. Data are expressed as mean.

| SMILES | GI50 |
| --- | --- |
| COc1cc(CN2CCOc3c(cc(Cn4cnn(C)c4=N)cc3-c3ccc(F)cc3C)C2=O)cc(OC)c1 [Example 6, 4-(3,5-Dimethoxybenzyl)-9-(4-fluoro-2-methylphenyl)-7-((5-imino-1-methyl-1,5-dihydro-4H-1,2,4-triazol-4-yl)methyl)-3,4-dihydrobenzo[f][1,4]oxazepin-5(2H)-one] | 86 nM |
| Cc1cc(C)nc(CN2CCOc3c(cc(Cn4ccnc4C)cc3-c3scnc3C)C2=O)c1 [Example 46, 4-((4,6-Dimethylpyridin-2-yl)methyl)-7-((2-methyl-1H-imidazol-1-yl)methyl)-9-(4-methylthiazol-5-yl)-3,4-dihydrobenzo[f][1,4]oxazepin-5(2H)-one] | 703 nM |
| Cc1ccnc(CN2CCOc3c(cc(Cn4ccn(C)c4=N)cc3-c3ccc(F)cc3C)C2=O)c1 [Example 11, 9-(4-Fluoro-2-methylphenyl)-7-((2-imino-3-methyl-2,3-dihydro-1H-imidazol-1-yl)methyl)-4-((4-methylpyridin-2-yl)methyl)-3,4-dihydrobenzo[f][1,4]oxazepin-5(2H)-one] | 11 nM |
| COc1cc(CN2CNc3c(cc(Cn4ccn(C)c4=N)cc3-c3ccc(F)cc3C)C2=O)cc(OC)c1 [Example 23, 3-(3,5-Dimethoxybenzyl)-8-(4-fluoro-2-methylphenyl)-6-((2-imino-3-methyl-2,3-dihydro-1H-imidazol-1-yl)methyl)-2,3-dihydroquinazolin-4(1H)-one] | 92 nM |
| CCc1cc(C(=O)NCCN(C)C)c2nccc(N3CCOc4c(cc(Cn5ccnc5)cc4-c4cn(C)nc4C(F)(F)F)C3=O)c2c1 [Example 73, 4-(7-((1H-imidazol-1-yl)methyl)-9-(1-methyl-3-(trifluoromethyl)-1H-pyrazol-4-yl)-5-oxo-2,3-dihydrobenzo[f][1,4]oxazepin-4(5H)-yl)-N-(2-(dimethylamino)ethyl)-6-ethylquinoline-8-carboxamide] | 255 nM |
| Cc1cc(C)nc(CN2CCOc3c(cc(Cn4ccn(C)c4=N)cc3-c3ccc(F)cc3C)C2=O)c1 [Example 12, 4-((4,6-Dimethylpyridin-2-yl)methyl)-9-(4-fluoro-2-methylphenyl)-7-((2-imino-3-methyl-2,3-dihydro-1H-imidazol-1-yl)methyl)-3,4-dihydrobenzo[f][1,4]oxazepin-5(2H)-one] | 3.5 nM |
| Cc1ccnc(CN2C[C@@H](C)Oc3c(cc(Cn4ccnc4C)cc3-c3cn(C)nc3C(F)(F)F)C2=O)c1 [Example 40, (R)-2-Methyl-7-((2-methyl-1H-imidazol-1-yl)methyl)-9-(1-methyl-3-(trifluoromethyl)-1H-pyrazol-4-yl)-4-((4-methylpyridin-2-yl)methyl)-3,4-dihydrobenzo[f][1,4]oxazepin-5(2H)-one] | 529 nM |
| Cc1cc(C)nc(CN2CCOc3c(cc(Cn4cnn(C)c4=N)cc3-c3cn(C)nc3C(F)(F)F)C2=O)c1 [Example 31, 4-((4,6-dimethylpyridin-2-yl)methyl)-7-((5-imino-1-methyl-1,5-dihydro-4H-1,2,4-triazol-4-yl)methyl)-9-(1-methyl-3-(trifluoromethyl)-1H-pyrazol-4-yl)-3,4-dihydrobenzo[f][1,4]oxazepin-5(2H)-one] | 231 nM |
| COc1cc(CN2CCOc3c(cc(CNc4nocc4C)cc3-c3ccc(F)cc3C)C2=O)cc(OC)c1 [Example 7, 4-(3,5-Dimethoxybenzyl)-9-(4-fluoro-2-methylphenyl)-7-(((4-methylisoxazol-3-yl)amino)methyl)-3,4-dihydrobenzo[f][1,4]oxazepin-5(2H)-one] | > 940 nM |
| COc1ccnc(Cn2cnc3c(-c4cn(C)nc4C(F)(F)F)cc(Cn4ccnc4C)cc3c2=O)c1 [Example 55, 3-((4-Methoxypyridin-2-yl)methyl)-6-((2-methyl-1H-imidazol-1-yl)methyl)-8-(1-methyl-3-(trifluoromethyl)-1H-pyrazol-4-yl)quinazolin-4(3H)-one] | 570 nM |
